For assay [1], the target named is T1, mMC4R (Mus musculus, UniProt P56450). Further details: expressed in transfected cells. To be noted: Joseph et al. 2003; read-out: reported stimulation potency at the mMC4R; cited from earlier work.
In assay [2] the target is T2, mMC3R (Mus musculus, UniProt P33033). Further details: expressed in transfected cells. To be noted: Joseph et al. 2003; read-out: reported stimulation potency at the mMC3R; cited from earlier work.
The target of assay [3] is T1, mMC4R. Nature of the assay: AlphaScreen cAMP agonist assay at mMC4R. The conditions noted are these: read-out: mMC4R Agonist, percent of the NDP-MSH maximal positive control. (Alpha assays give light when donor and acceptor beads are brought close together.)
Assay [4] addresses T1, mMC4R. Kind of assay: 125I-NDP-MSH competitive binding assay at mMC4R. To be noted: Table 3; vs Ac-His-DPhe-Arg-Trp-NH2; negative = more potent than control.
Assay [5] has as its target T2, mMC3R. Nature of the assay: 125I-NDP-MSH competitive binding assay at mMC3R. Further details: expressed in transfected cells. The conditions noted are these: for mMC3R (IC50) Fold Diff.: Table 3, vs Ac-His-DPhe-Arg-Trp-NH2, negative = more potent than control. The protocol:
A typical experiment utilized a 12-well format. […] Pharm. Des.
The plates were incubated at 37° C. with 5% CO2 for 1 hour. Post incubation, the media was aspirated, each well was washed with 500 μL assay media, and cells were lysed with 500 μL of 0.1 M NaOH and 500 μL of 1% Triton x-100.
Following a 10-15 minute room temperature incubation, the cell lysate mixture was transferred to 12×75 mm polystyrene tubes and the radioactivity was quantified using a WIZARD^2 Automatic Gamma Counter (Perkin-Elmer). […] GraphPad, Inc), and dose-response curves in addition to the corresponding IC50 values were calculated by a non-linear regression method. Each reported value represents the mean and standard error of the mean (SEM) of, at least, two independent experiments each containing two experimental replicates.
Note each reported value represents the mean and standard error of the mean (SEM) of at least two independent experiments containing two experimental replicates.

Assay [6] addresses T2, mMC3R. To be noted: Table 1; Schild analysis, pA2 = -Log(Ki); Full Agonist = full dose-response, No Activity = no shift in EC50.

Square brackets hold non-standard residues; d marks the D form. Peptide text beside a SMILES is read from it. dPhe(4-I) = N[C@H](Cc1ccc(I)cc1)C(=O)O; d2Nal = N[C@H](Cc1ccc2ccccc2c1)C(=O)O; Tic = O=C(O)[C@@H]1Cc2ccccc2CN1; Nle = CCCC[C@H](N)C(=O)O

T1 sequence (P56450 whole entry): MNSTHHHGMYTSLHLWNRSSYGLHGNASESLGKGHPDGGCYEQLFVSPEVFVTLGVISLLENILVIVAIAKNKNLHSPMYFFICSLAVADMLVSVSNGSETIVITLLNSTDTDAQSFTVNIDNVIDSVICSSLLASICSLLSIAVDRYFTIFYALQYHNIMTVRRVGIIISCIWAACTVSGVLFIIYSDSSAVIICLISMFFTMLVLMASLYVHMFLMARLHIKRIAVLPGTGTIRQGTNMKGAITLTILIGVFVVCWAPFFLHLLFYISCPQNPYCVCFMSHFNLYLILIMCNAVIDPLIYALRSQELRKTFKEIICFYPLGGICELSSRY
T2 sequence (P33033 whole entry): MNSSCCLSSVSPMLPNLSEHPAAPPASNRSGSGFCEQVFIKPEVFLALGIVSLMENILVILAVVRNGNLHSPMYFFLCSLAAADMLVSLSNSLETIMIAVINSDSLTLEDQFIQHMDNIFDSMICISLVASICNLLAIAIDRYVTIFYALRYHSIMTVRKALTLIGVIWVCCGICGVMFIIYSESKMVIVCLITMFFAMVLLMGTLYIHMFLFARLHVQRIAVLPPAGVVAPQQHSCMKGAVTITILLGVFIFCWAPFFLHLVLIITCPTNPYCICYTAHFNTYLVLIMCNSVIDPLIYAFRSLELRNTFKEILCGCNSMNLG

With “Ac-Ser-Tyr-Ser-Nle-Glu-His-Arg-Phe-Phe-Gly-Lys-Pro-Val-NH2 (Ac-SYS[Nle]EHRFFGKPV-NH2; SMILES CCCC[C@H](NC(=O)[C@H](CO)NC(=O)[C@H](Cc1ccc(O)cc1)NC(=O)[C@H](CO)NC(C)=O)C(=O)N[C@@H](CCC(=O)O)C(=O)N[C@@H](Cc1c[nH]cn1)C(=O)N[C@@H](CCCNC(=N)N)C(=O)N[C@@H](Cc1ccccc1)C(=O)N[C@@H](Cc1ccccc1)C(=O)NCC(=O)N[C@@H](CCCCN)C(=O)N1CCC[C@H]1C(=O)N[C@H](C(N)=O)C(C)C) [chimeric NDP-MSH/AGRP peptide]”, the EC50 with mMC4R [1] is 930 nM; with mMC3R [2] it was 480 nM.

Regarding `CC(=O)N[C@H](Cc1ccc2ccccc2c1)C(=O)N[C@@H](CCCNC(=N)N)C(=O)N[C@H](Cc1ccc(I)cc1)C(=O)N1Cc2ccccc2C[C@H]1C(N)=O` [SKY6-24-3, Ac-DNal(2′)-Arg-(pI)DPhe-Tic-NH2] (Ac-[d2Nal]R[dPhe(4-I)][Tic]-NH2), on mMC4R [3], the activation at 100 µM worked out at 32%. On mMC4R [4], the “mMC4R (IC50) Fold Diff.” value is recorded as -3. On mMC3R [5], the IC50 (in general, the point on the concentration scale where inhibition reaches its midpoint) is 440 nM; the “fold improvement of binding IC50 at the mMC3R compared to SKY4-48-1” value is listed as 120 fold; the “mMC3R (IC50) Fold Diff.” value was -120. Besides, the “mMC3R Antagonist pA2 ± SEM” value at mMC3R [6] is given as “Full Agonist”.

For `CC(=O)N[C@@H](CCCNC(=N)N)C(=O)N[C@@H](CCCNC(=N)N)C(=O)N[C@H](Cc1ccc(I)cc1)C(=O)N[C@@H](Cc1csc2ccccc12)C(N)=O` [SKY4-48-10, Ac-Arg-Arg-(pI)DPhe-3Bal-NH2], the activation at 100 µM at mMC4R [3] is 24%. Also, the “mMC4R (IC50) Fold Diff.” value on mMC4R [4] was found to be 1. Besides, the “mMC3R (IC50) Fold Diff.” value at mMC3R [5] is -52. In addition, the “mMC3R Antagonist pA2 ± SEM” value at mMC3R [6] is listed as “Full Agonist”.

(Values after patent US10899793B2, “Melanocortin ligands and methods of use thereof” (priority 2016, dated 2021).)
